The target in experiment [1] is Serotonin 3 (5-HT3) receptor. The experiment can be described thus: Binding affinity towards [3H]quipazine labeled 5-hydroxytryptamine 3 receptor sites in HG108-15. In kind it is protein-complex assay, Cavia porcellus.
Experiment [2] concerns Rattus norvegicus. The experiment can be described thus: Effective dose causing reduction of serotonin effect at 5 min administered iv in Bezold-Jarisch reflex test. The class given is functional.
Experiment [3] has as its system Rattus norvegicus. Nature of the experiment: Inhibitory dose causing inhibition of restraint stress induced defecation by oral administration. The class given is functional. The note with it: read-out: ID50 (the source's name).
Experiment [4] has as its system Rattus norvegicus. Nature of the experiment: Inhibition of restraint stress induced defecation by oral administration (inhibition at 1 mg/kg).
The test system of experiment [5] is Rattus norvegicus. The experiment can be described thus: Inhibition of restraint stress induced defecation by oral administration (inhibition percent at 1 mg/kg).
Experiment [6] is filed under the species Rattus norvegicus. Nature of the experiment: Inhibition of wrap-restraint stress-induced colonic propulsion measured by the time required to expel a teflon ball inserted 3 cm into the rat colon. In kind it is functional. The note with it: read-out: ID50 (the source's name).
For experiment [7], the species on record is Rattus norvegicus. The experiment can be described thus: animal or person. The class given is functional. Conditions: sc, dose mg/kg 1-10, route subcutaneous, read-out: ID50 (the source's name).
Description: Inhibitory dose causing inhibition of increase in 5-HT induced defecation by sc administration 1 to 10 mg/kg
Experiment [8] relates to Rattus norvegicus. Nature of the experiment: Inhibitory dose causing inhibition of increase in castor oil induced diarrhea by oral administration at 1 ml/rat. The class given is functional. Conditions: read-out: ID50 (the source's name).
The species entered for experiment [9] is Rattus norvegicus. Nature of the experiment: animal or person. The class given is functional. Conditions: sc, route subcutaneous, read-out: ID50 (the source's name).
Description: Inhibitory dose causing inhibition of increase in thyrotropin-releasing hormone (TRH) induced defecation by sc administration at 1 mg/kg
The test system of experiment [10] is Rattus norvegicus. The experiment can be described thus: Inhibitory dose causing inhibition of increase in 5-HT induced defecation by sc administration at 1 to 10 mg/kg. In kind it is functional. Conditions: dose mg/kg 1-10, route subcutaneous, read-out: ID50 (the source's name).
In experiment [11] the test system is Rattus norvegicus. Nature of the experiment: Inhibitory dose causing inhibition of restraint stress induced defecation by oral administration ((inhibition percent at 1 mg/kg). In kind it is functional. The note with it: read-out: ID50 (the source's name).

Broadly, the Ki is the equilibrium dissociation constant of an inhibitor or competing ligand from its target. Read a low Ki as tighter binding.

The structures appear in SMILES notation.

In experiment [1], `CCCCCCn1c(=O)cc(C(=O)OC2CC3CCC(C2)N3C)c2ccccc21` (configuration not stated) yielded a Ki of 1.1 nM. Further, the ED50 was 86 µg/kg in [2] and 66 µg/kg in experiment [3].

In turn, `CN1C2CCC1CC(OC(=O)c1cnc3ccccc3c1O)C2` (configuration not stated) returned a Ki in experiment [1] of 6.1 nM. In experiment [2], this compound showed an ED50 of 1.7 µg/kg. For the same compound, the Inhibition % at 1 mg/kg in [4] is 13%.

With `CC(C)Cc1cc(C(=O)OC2CC3CCC(C2)N3C)c2ccccc2n1` (configuration not stated), in experiment [1], the affinity corresponds to a Ki of 0.69 nM. For the same compound, in experiment [2], the ED50 is 5.6 µg/kg. Further, in [4], the Inhibition % at 1 mg/kg was determined as 28%.

With `CCOc1cc(C(=O)OC2CC3CCC(C2)N3C)c2ccccc2n1` (configuration not stated), in [1], the Ki was 0.88 nM. Further, in experiment [2], the ED50 was 70 µg/kg. The same compound showed an Inhibition % at 1 mg/kg in [5] of 36%.

As to `CN1C2CCC1CC(NC(=O)c1cnc3ccccc3c1O)C2` (configuration not stated), in experiment [1], the Ki worked out at 1.5 nM. In addition, the ED50 in experiment [2] was found to be 0.1 µg/kg; in experiment [6], 1800 µg/kg; in [7], 690 µg/kg; in experiment [8] it was 790 µg/kg; in experiment [9] it was 53 µg/kg; in experiment [3] it was 1400 µg/kg.

Take `CCCCOc1cc(C(=O)OC2CC3CCC(C2)N3C)c2ccccc2n1` (configuration not stated): the affinity in experiment [1] corresponds to a Ki of 0.39 nM. The ED50 in experiment [2] is 200 µg/kg. The same compound had an Inhibition % at 1 mg/kg in experiment [5] of 64%.

In the case of `COc1cc(C(=O)OC2CC3CCC(C2)N3C)c2ccccc2n1` (configuration not stated), the Ki in experiment [1] was found to be 0.58 nM. The ED50 in [2] was 420 µg/kg; in experiment [3] it was 45000 µg/kg.

As for `CCCn1c(=O)cc(C(=O)OC2CC3CCC(C2)N3C)c2ccccc21` (configuration not stated), the Ki in experiment [1] came to 0.45 nM. For the same compound, the ED50 amounted to 330 µg/kg in experiment [2] and 170 µg/kg in experiment [3].

In the case of `CCCCn1c(=O)c(C(=O)NC2CC3CCC(C2)N3C)c(O)c2cccnc21` (configuration not stated), in [1], the Ki amounted to 6.4 nM. For the same compound, the ED50 in [2] stood at 290 µg/kg. In experiment [4], this compound came in with an Inhibition % at 1 mg/kg of 35%.

`CCCCCn1c(=O)cc(C(=O)OC2CC3CCC(C2)N3C)c2ccccc21` (configuration not stated) had a Ki in experiment [1] of 0.96 nM. The ED50 in experiment [2] is 59 µg/kg; in [3], 73 µg/kg.

Take `CN1C2CCC1CC(OC(=O)c1cc(=O)n(C)c3ccccc13)C2` (configuration not stated): the Ki in experiment [1] was 2.6 nM. Besides, the ED50 in [2] stood at 180 µg/kg. In addition, the Inhibition % at 1 mg/kg in [5] was found to be 47%.

Regarding `Cc1nc2ccccc2c(O)c1C(=O)NC1CC2CCC(C1)N2C` (configuration not stated), the affinity in experiment [1] corresponds to a Ki of 7.2 nM. Further, in experiment [2], the ED50 was 15 µg/kg. In experiment [4], the Inhibition % at 1 mg/kg came to 41%.

In [1], `CN1C2CCC1CC(OC(=O)c1cc(=O)n(-c3ccccc3)c3ccccc13)C2` (configuration not stated) registered an inhibitory constant (Ki) of 0.51 nM. Also, the ED50 in [2] turned out to be 44 µg/kg. The compound also had an Inhibition % at 1 mg/kg in [5] of 59%.

Regarding `CCCCn1c(=O)cc(C(=O)OC2CC3CCC(C2)N3C)c2ccccc21` (configuration not stated), the Ki in [1] came out at 0.68 nM. Moreover, the ED50 stood at 41 µg/kg in experiment [2] and 140 µg/kg in experiment [3].

In turn, `CCCCCCOc1cc(C(=O)OC2CC3CCC(C2)N3C)c2ccccc2n1` (configuration not stated) showed a Ki in experiment [1] of 3.2 nM. Besides, the ED50 in experiment [2] turned out to be 7680 µg/kg. In experiment [5], this compound displayed an Inhibition % at 1 mg/kg of 23%.

`CN1C2CCC1CC(OC(=O)c1cc(-c3ccccc3)nc3ccccc13)C2` (configuration not stated) returned a Ki in experiment [1] of 71 nM. The compound further yielded an ED50 in [2] of 340 µg/kg.

In turn, `CCCn1c(=O)cc(C(=O)NC2CC3CCC(C2)N3C)c2ccccc21` (configuration not stated) registered a Ki in [1] of 67 nM. This compound registered an ED50 in experiment [2] of 350 µg/kg. The Inhibition % at 1 mg/kg in experiment [5] was determined as 12%.

As to `CCCCn1c(=O)c(C(=O)NC2CC3CCC(C2)N3C)c(O)c2ccccc21` (configuration not stated), the affinity in experiment [1] corresponds to a Ki of 0.48 nM. The compound further showed an ED50 in experiment [2] of 290 µg/kg. The compound also gave an Inhibition % at 1 mg/kg in experiment [4] of 61%.

Consider `Cn1cc(C(=O)C2CCc3nc[nH]c3C2)c2ccccc21` (configuration not stated), for which, in experiment [1], affinity was put at a Ki of 0.071 nM. In addition, the ED50 is 0.089 µg/kg in experiment [2]; 69 µg/kg in experiment [6]; 13 µg/kg in experiment [7]; 1100 µg/kg in experiment [8]; 5.1 µg/kg in experiment [9]; 5.2 µg/kg in experiment [3].

Take `CCCCn1c(=O)cc(C(=O)NC2CC3CCC(C2)N3C)c2ccccc21` (configuration not stated): in experiment [1], the Ki is 60 nM. In [2], this compound came in with an ED50 of 370 µg/kg. In [5], this compound yielded an Inhibition % at 1 mg/kg of 47%.

Turning to `CN1C2CCC1CC(NC(=O)c1cc(=O)n(-c3ccccc3)c3ccccc13)C2` (configuration not stated), the affinity in experiment [1], expressed as Ki, was 63 nM. The compound further registered an ED50 in experiment [2] of 190 µg/kg. In experiment [5], the Inhibition % at 1 mg/kg came to 14%.

`CC(C)CCn1c(=O)cc(C(=O)OC2CC3CCC(C2)N3C)c2ccccc21` (configuration not stated) displayed a Ki in experiment [1] of 1.5 nM. Moreover, the ED50 was 59 µg/kg in [2] and 41 µg/kg in [3].

`CC(C)Cn1c(=O)cc(C(=O)OC2CC3CCC(C2)N3C)c2ccccc21` (configuration not stated) showed a Ki in experiment [1] of 0.47 nM. In addition, the ED50 in experiment [2] amounted to 33 µg/kg; in [6], 10 µg/kg; in experiment [7], 18 µg/kg; in experiment [8] it was 1400 µg/kg; in experiment [9], 21 µg/kg; in [3], 13 µg/kg.

In turn, `CCCOc1cc(C(=O)NC2CC3CCC(C2)N3C)c2ccccc2n1` (configuration not stated) yielded a Ki in [1] of 42 nM. In experiment [2], the ED50 was 1540 µg/kg. In addition, in [5], the Inhibition % at 1 mg/kg was found to be 29%.

In experiment [1], `CN1C2CCC1CC(OC(=O)c1cc(=O)n(Cc3ccccc3)c3ccccc13)C2` (configuration not stated) gave a Ki of 1.3 nM. For the same compound, the ED50 in [2] was found to be 150 µg/kg. In experiment [5], this compound yielded an Inhibition % at 1 mg/kg of 22%.

In the case of `CCn1c(=O)cc(C(=O)OC2CC3CCC(C2)N3C)c2ccccc21` (configuration not stated), the affinity in experiment [1], expressed as Ki, was 1.1 nM. Also, the ED50 in [2] was found to be 22 µg/kg; in [3], 52 µg/kg.

For the compound `CCCCCOc1cc(C(=O)OC2CC3CCC(C2)N3C)c2ccccc2n1` (configuration not stated), in [1], the affinity, expressed as Ki, was 0.86 nM. Also, the ED50 in experiment [2] amounted to 1130 µg/kg; in experiment [3], 30000 µg/kg.

Take `CC(C)n1c(=O)cc(C(=O)OC2CC3CCC(C2)N3C)c2ccccc21` (configuration not stated): the affinity in [1], expressed as Ki, was 0.32 nM. Further, the ED50 in [2] amounted to 81 µg/kg; in experiment [3], 40 µg/kg.

`CN1C2CCC1CC(NC(=O)c1c(O)c3ccccc3n(-c3ccccc3)c1=O)C2` (configuration not stated) registered a Ki in experiment [1] of 1.4 nM. For the same compound, the ED50 in [2] was found to be 73 µg/kg. The Inhibition % at 1 mg/kg in [4] amounted to 48%.

Take `Cc1nccn1CC1CCc2c(c3ccccc3n2C)C1=O` (configuration not stated) [ONDANSETRON]: the ED50 in experiment [6] was determined as 1600 µg/kg; in [10], 530 µg/kg; in experiment [8] it was 1400 µg/kg; in experiment [9] it was 310 µg/kg; in [3], 27 µg/kg.

Regarding `CCCCOc1cc(C(=O)NC2CC3CCC(C2)N3C)c2ccccc2n1` (configuration not stated), the Ki in [1] came out at 19 nM. In addition, the ED50 in experiment [2] is 540 µg/kg. This compound also yielded an Inhibition % at 1 mg/kg in experiment [5] of 43%.

`CC(C)Oc1cc(C(=O)NC2CC3CCC(C2)N3C)c2ccccc2n1` (configuration not stated): the Ki in [1] stood at 53 nM. The ED50 was 1860 µg/kg in experiment [2] and 39000 µg/kg in experiment [3].

As to `CC(C)COc1cc(C(=O)OC2CC3CCC(C2)N3C)c2ccccc2n1` (configuration not stated), in experiment [1], the Ki is 0.44 nM. Further, the ED50 in [2] was 240 µg/kg; in experiment [11], 36000 µg/kg.
